Data: the supplement of paper PMC4862054
“And” between values parts separate entries of the source, which are not always exact repeats. Equal entries are not always repeated. Values belong to the compound of their own block, whether it stands above or below them.

Tests used:
BT-474 [1] = settings: 72 h
Procedure, shortened: (§1)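 Seeding of breast cancer cell lines (20 µl suspension) was done into 384-well plates pre-loaded with compound at 5 concentrations, 10-fold apart, covering a compound-specific 10,000-fold range. The plates were incubated for 72 h, read for CellTox Green fluorescence (485/520 nm), and then read for CellTiter-Glo luminescence after 10 min at room temperature. Every plate was normalised to 0.1 % DMSO and a positive kill control. Curve fitting gave the EC50, censored at the top concentration.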

BT-549 [2] = settings: 72 h
Procedure, shortened: as §1

CAL-120 = settings: 72 h
Procedure, shortened: as §1

CAL-51 [3] = settings: 72 h
Procedure, shortened: as §1

CAL-85-1 [4] = settings: 72 h
Procedure, shortened: as §1

DU-4475 [5] = settings: 72 h
Procedure, shortened: as §1

HCC1143 [6] = settings: 72 h
Procedure, shortened: as §1

HCC1937 [7] = settings: 72 h
Procedure, shortened: as §1

HDQ-P1 [8] = settings: 72 h
Procedure, shortened: as §1

Hs578T [9] = settings: 72 h
Procedure, shortened: as §1

MCF-10A [10] = settings: 72 h
Procedure, shortened: as §1

MDA-MB-231 [11] = settings: 72 h
Procedure, shortened: as §1

MDA-MB-453 [12] = settings: 72 h
Procedure, shortened: as §1

MDA-MB-468 [13] = settings: 72 h
Procedure, shortened: as §1

MFM-223 [14] = settings: 72 h
Procedure, shortened: as §1

SK-BR-3 = settings: 72 h
Procedure, shortened: as §1

CAL-85-1 [15] = settings: 72 h; remark: listed apart in the source
Experimental: (§2)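 Drug sensitivity and resistance testing (DSRT) of breast cancer cell lines in 384-well plates, 5 concentrations in 10-fold dilutions over a compound-specific 10,000-fold range. After 72 h, cytotoxicity was read by CellTox Green fluorescence and viability by CellTiter-Glo luminescence (multiplexed), normalised to DMSO and benzethonium chloride controls. EC50 is the inflection point of the fitted dose-response curve (bottom asymptote free, so it can be relative for partial curves) and is censored at the highest tested concentration. Rows with DSS 0 (no meaningful response) were excluded.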

HDQ-P1 [16] = settings: 72 h; remark: listed apart in the source
Experimental: as §2

MCF-10A [17] = settings: 72 h; remark: listed apart in the source
Experimental: as §2

MDA-MB-231 [18] = settings: 72 h; remark: listed apart in the source
Experimental: as §2

MDA-MB-468 [19] = settings: 72 h; remark: listed apart in the source
Experimental: as §2

CAL-148 [20] = settings: 72 h
Procedure, shortened: as §1

HCC1599 = settings: 72 h
Procedure, shortened: as §1

MDA-MB-436 = settings: 72 h
Procedure, shortened: as §1

CAL-148 [21] = settings: 72 h; remark: listed apart in the source
Experimental: as §2

Hs578T [22] = settings: 72 h; remark: listed apart in the source
Experimental: as §2

MFM-223 [23] = settings: 72 h; remark: listed apart in the source
Experimental: as §2

CAL-85-1 [24] = experiment: normalised viability (% of control), CellTiter-Blue; higher = more viable cells (about 100 = DMSO control); settings: incubation time: 72 h
Procedure, shortened: (§3)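 384-well plates were pre-loaded with compound in 5 µl medium before 20 µl of breast cancer cell suspension was seeded. Following 72 h incubation, 2.5 µl CellTiter-Blue reagent was added for 2 h at 37 °C. Fluorescence was read at 560/590 nm and plates were normalised to vehicle (100) and a positive kill control (0), checked by Z'-factor. Normalised viability is reported at a single listed concentration of the series.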

MDA-MB-453 [25] = experiment: as above; settings: incubation time: 72 h
Procedure, shortened: as §3

CAL-148 [26] = settings: 72 h; remark: listed apart in the source
Procedure, shortened: (§4)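 The reported EC50 was fitted from percent-inhibition dose-response curves and censored at the highest concentration. Breast cancer cell lines (20 µl suspension) were added to 384-well plates containing compound in 5 µl medium and incubated 72 h, and viability was read with 2.5 µl CellTiter-Blue over 2 h at 37 °C at 560/590 nm. Each plate was normalised to vehicle and a positive kill control and checked by Z'-factor, and rows with zero drug sensitivity score were dropped.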

CAL-51 [27] = settings: 72 h; remark: listed apart in the source
Procedure, shortened: as §4

DU-4475 [28] = settings: 72 h; remark: listed apart in the source
Procedure, shortened: as §4

HCC1143 [29] = settings: 72 h; remark: listed apart in the source
Procedure, shortened: as §4

HCC1937 [30] = settings: 72 h; remark: listed apart in the source
Procedure, shortened: as §4

MDA-MB-453 [31] = settings: 72 h; remark: listed apart in the source
Procedure, shortened: as §4

BT-474 [32] = settings: 72 h; remark: listed apart in the source
Experimental: as §2

HDQ-P1 [33] = settings: 72 h; remark: listed apart in the source
Procedure, shortened: as §4

BT-549 [34] = settings: 72 h; remark: listed apart in the source
Procedure, shortened: as §4

EC50, CellTiter-Glo (BT-474 [1]): 6.72 µM
EC50, CellTiter-Glo (BT-549 [2]): 673 nM
EC50, CellTiter-Glo (HCC1143 [6]): 1380 nM
EC50, CellTiter-Glo (HCC1937 [7]): 537 nM
EC50, CellTiter-Glo (MDA-MB-231 [11]): 1310 nM
EC50, CellTiter-Glo (MDA-MB-453 [12]): 2190 nM
EC50, CellTiter-Glo (MDA-MB-468 [13]): 3.11 µM
EC50, CellTiter-Glo (SK-BR-3): 1220 nM
Compound: COc1cc2c(cc1-c1c(C)noc1C)ncc1[nH]c(=O)n([C@H](C)c3ccccn3)c12 [I-BET151]
EC50, CellTiter-Glo (CAL-120): 574 nM
EC50, CellTiter-Glo (CAL-51 [3]): 1380 nM
EC50, CellTiter-Glo (CAL-85-1 [4]): 834 nM
EC50, CellTiter-Glo (DU-4475 [5]): 4080 nM
EC50, CellTiter-Glo (HDQ-P1 [8]): 1340 nM
EC50, CellTiter-Glo (Hs578T [9]): 678 nM
EC50, CellTiter-Glo (MCF-10A [10]): 855 nM
EC50, CellTiter-Glo (MFM-223 [14]): 913 nM
EC50, CellTox Green (CAL-85-1 [15]): 1370 nM
EC50, CellTox Green (HDQ-P1 [16]): 123 nM
EC50, CellTox Green (MCF-10A [17]): 6.94 µM
EC50, CellTox Green (MDA-MB-231 [18]): 8.48 µM
EC50, CellTox Green (MDA-MB-468 [19]): 3.14 µM

EC50, CellTiter-Glo (BT-474 [1]): 0.0319 µM
EC50, CellTiter-Glo (BT-549 [2]): 22.7 nM
EC50, CellTiter-Glo (HCC1143 [6]): 38.2 nM
EC50, CellTiter-Glo (HCC1599): 28.8 nM
EC50, CellTiter-Glo (HCC1937 [7]): 173 nM
EC50, CellTiter-Glo (MDA-MB-231 [11]): 37.4 nM
EC50, CellTiter-Glo (MDA-MB-436): 23.6 nM
EC50, CellTiter-Glo (MDA-MB-453 [12]): 16.8 nM
EC50, CellTiter-Glo (MDA-MB-468 [13]): 0.0406 µM
EC50, CellTiter-Glo (SK-BR-3): 8.43 nM
Compound: CC(C)n1nc(-c2ccc3oc(N)nc3c2)c2c(N)ncnc21 [INK128]
EC50, CellTiter-Glo (CAL-120): 27.8 nM
EC50, CellTiter-Glo (CAL-148 [20]): 32.2 nM
EC50, CellTiter-Glo (CAL-51 [3]): 15.9 nM
EC50, CellTiter-Glo (CAL-85-1 [4]): 25.5 nM
EC50, CellTiter-Glo (DU-4475 [5]): 188 nM
EC50, CellTiter-Glo (HDQ-P1 [8]): 24 nM
EC50, CellTiter-Glo (Hs578T [9]): 27.8 nM
EC50, CellTiter-Glo (MCF-10A [10]): 43 nM
EC50, CellTiter-Glo (MFM-223 [14]): 15.4 nM
EC50, CellTox Green (CAL-148 [21]): 56.9 nM
EC50, CellTox Green (Hs578T [22]): 130 nM
EC50, CellTox Green (MFM-223 [23]): 494 nM

Compound: O=NN(CCCl)C(=O)NC1CCCCC1 [Lomustine] (10000 nM)
normalised viability (CAL-85-1 [24]): 77.4%
normalised viability (MDA-MB-453 [25]): 47.5%

Compound: O=C(O)CC[C@H]1CC[C@@](c2cc(F)ccc2F)(S(=O)(=O)c2ccc(Cl)cc2)CC1 [MK-0752] (1000 nM)
normalised viability (CAL-85-1 [24]): 104%
normalised viability (MDA-MB-453 [25]): 117%

EC50, CellTiter-Glo (MDA-MB-436): 601 nM
EC50, CellTiter-Glo (MDA-MB-468 [13]): 9.35 µM
EC50, CellTiter-Blue viability (HCC1143 [29]): 1660 nM
EC50, CellTiter-Blue viability (HCC1937 [30]): 1330 nM
Compound: NC(=O)c1cccc2cn(-c3ccc([C@@H]4CCCNC4)cc3)nc12 [MK-4827]
EC50, CellTiter-Glo (CAL-148 [20]): 2630 nM
EC50, CellTiter-Glo (DU-4475 [5]): 1090 nM
EC50, CellTiter-Blue viability (CAL-148 [26]): 2330 nM
EC50, CellTiter-Blue viability (CAL-51 [27]): 1780 nM
EC50, CellTiter-Blue viability (DU-4475 [28]): 4.42 µM

Compound: NC(=O)c1cccc2cn(-c3ccc([C@@H]4CCCNC4)cc3)nc12 [MK-4827] (10000 nM)
normalised viability (CAL-85-1 [24]): 73.2%
normalised viability (MDA-MB-453 [25]): 63.2%

Compound: CO[C@H](C(=O)[C@@H](O)[C@@H](C)O)[C@@H]1Cc2cc3cc(O[C@H]4C[C@@H](O[C@@H]5C[C@@H](O)[C@H](O)[C@@H](C)O5)[C@H](O)[C@@H](C)O4)c(C)c(O)c3c(O)c2C(=O)[C@H]1O[C@H]1C[C@@H](O[C@@H]2C[C@@H](O)[C@@H](O[C@@H]3C[C@](C)(O)[C@H](O)[C@@H](C)O3)[C@@H](C)O2)[C@H](O)[C@@H](C)O1 [Plicamycin] (10000 nM)
normalised viability (CAL-85-1 [24]): 4.34% and 2.26%
normalised viability (MDA-MB-453 [25]): 6.38% and 4.39%

Compound: C[C@]12C=CC(=O)C=C1CC[C@@H]1[C@@H]2C(=O)C[C@@]2(C)[C@H]1CC[C@]2(O)C(=O)CO [Prednisone] (10000 nM)
normalised viability (CAL-85-1 [24]): 103%
normalised viability (MDA-MB-453 [25]): 88%

EC50, CellTiter-Glo (SK-BR-3): 1460 nM
Compound: CN1CCN(c2nc(C3=C(c4c[nH]c5ccccc45)C(=O)NC3=O)c3ccccc3n2)CC1 [Sotrastaurin]
EC50, CellTiter-Glo (DU-4475 [5]): 6790 nM
EC50, CellTiter-Glo (HDQ-P1 [8]): > 10000 nM

Compound: CN1CCN(c2nc(C3=C(c4c[nH]c5ccccc45)C(=O)NC3=O)c3ccccc3n2)CC1 [Sotrastaurin] (10000 nM)
normalised viability (CAL-85-1 [24]): 124%
normalised viability (MDA-MB-453 [25]): 75.6%

Compound: CC/C(=C(\c1ccccc1)c1ccc(OCCN(C)C)cc1)c1ccccc1 [Tamoxifen] (10000 nM)
normalised viability (CAL-85-1 [24]): 102%
normalised viability (MDA-MB-453 [25]): 17.4%

Compound: COc1cc2c(N3CCN(C(=O)Nc4ccc(OC(C)C)cc4)CC3)ncnc2cc1OCCCN1CCCCC1 [Tandutinib]
EC50, CellTiter-Blue viability (CAL-148 [26]): 605 nM

EC50, CellTiter-Blue viability (MDA-MB-453 [31]): 1410 nM
Compound: C[C@@H](C(=O)O)c1ccc(-c2ccccc2)c(F)c1 [Tarenflurbil]
EC50, CellTox Green (BT-474 [32]): > 10 µM

EC50, CellTiter-Blue viability (BT-549 [34]): 1330 nM
Compound: Cn1nnc2c(C(N)=O)ncn2c1=O [Temozolomide]
EC50, CellTiter-Blue viability (HDQ-P1 [33]): 7.85 µM

Compound: Cn1nnc2c(C(N)=O)ncn2c1=O [Temozolomide] (10000 nM)
normalised viability (CAL-85-1 [24]): 107%
normalised viability (MDA-MB-453 [25]): 100%

Compound: CC[C@@H]1C(=O)N(C)c2cnc(Nc3ccc(C(=O)N[C@H]4CC[C@H](N5CCN(CC6CC6)CC5)CC4)cc3OC)nc2N1C(C)C [Volasertib] (1000 nM)
normalised viability (CAL-85-1 [24]): 61.5%
normalised viability (MDA-MB-453 [25]): 30.7%
